This is an account of results in paper PMC9862096, “Interaction of a Homologous Series of Amphiphiles with P-glycoprotein in a Membrane Environment—Contributions of Polar and Non-Polar Interactions” (Pharmaceutics, 2023).

The target of data set [1] is T1, mP–gp (Mus musculus, UniProt P21447).
T1 construct: made in house; host or cells: High-Five insect cells (Invitrogen), recombinant baculovirus; total membrane vesicles
Description: Photolabeling of P–gp with [125I]-IAAP / IAAP displacement. Type of data set: binding. Conditions: concentration of 2 μM, positive control. The protocol: The native membranes of High-Five insect cells expressing mP–gp (1.0 mg/mL) were incubated at room temperature with the indicated concentrations of the inhibitor for 5 min. IAAP (5 to 7 nM) was later added, and the reaction mixture was further incubated for 5 min under subdued light. The samples were photocross-linked with 366 nm UV light for 10 min at room temperature, followed by electrophoresis and quantification, as described previously. The raw data are shown in the Supplementary Information (Figure S4). The results were first analyzed with the usual equation, considering the total concentration of IAAP and NBD amphiphile, as well as competitive inhibition of IAAP binding, see Supplementary Information (Equation (S2)). The dissociation constant considered for IAAP was taken from the literature, 412 nM [15]. The results were also analyzed with a formalism derived in this manuscript considering the distribution of the NBD amphiphile in the distinct environments (aqueous phase, lipid bilayer, and P–gp), the distribution of IAAP between the aqueous media and P–gp, and several equal and independent binding sites in P–gp’s binding pocket, Equation (10).
In this assay, in addition to the binding of the NBD amphiphiles to P–gp binding pocket, it is also necessary to consider the binding of IAAP. The concentration of IAAP used in the assay (5 nM) is several orders of magnitude smaller than that of the amphiphiles in study, and it is also smaller than the total concentration of P–gp (59 nM). Therefore, Equation (8) may be used to calculate the concentration of free ligand and protein. The fraction of IAAP bound to P–gp may then be calculated from Equation (10), where P^* is the concentration of P–gp available for IAAP binding. (10) IP/IT=−b−b^2−4ac/2aa=1; b=−1+KdIAAP/IT+P^*/IT; c=P^*/IT
The number of binding sites in P–gp binding pocket was varied from 1 to 5, and three situations were considered in the analysis: (i) full inhibition of IAAP binding when at least one NBD amphiphile is in the P–gp binding pocket ( i≥1 ), corresponding to P^*=P; (ii) inhibition of IAAP binding only when P–gp is fully saturated ( i=n ), corresponding to P^*=P+∑i=1n−1PLi; and (iii) an intermediate situation with IAAP displacement for i≥n−1 , corresponding to P^*=P+∑i=1n−2PLi .
The displacement of IAAP from P–gp binding pocket was calculated from Equation (11), where IP0 is the concentration of IAAP bound to P–gp in the absence of the NBD amphiphiles. (11) IAAP displacement %=100IP0−IP/IP0

Data set [2] addresses T1, mP–gp. Further details: method as in PMID 28283574. The note with it: positive control; read-out: KI, inhibition of IAAP binding; cited from earlier work.
For data set [3] the following is noted: e.g. 1 M trehalose; cited from earlier work.
Data set [4] can be described thus: Association (partition) of the NBD amphiphiles with native membranes, NBD fluorescence. The note with it: for KPW→M: aqueous phase to native membrane. It is filed as physicochemical, High-Five insect cells. On the procedure:
(§1) The membranes were diluted to the chosen concentration with simplified ATPase assay buffer and warmed to 37 °C. The NBD amphiphiles were added from stocks in DMSO (final DMSO 1% v/v) by squirting the required volume into the membrane solution under gentle vortex. Fluorescence intensity was measured after 15 to 30 min incubation at 37 °C using a Cary Eclipse spectrofluorimeter (Varian, Singapore). The path length of the sample container was selected to guarantee that scattering at the excitation wavelength was smaller than 0.1 while maintaining a good signal/noise ratio (3, 5, or 10 mm).
(§2) The increase in fluorescence of the NBD amphiphiles when associated with the model membranes was well described by a simple partition (Equation (S3)). The low affinity of the less lipophilic amphiphiles for the native membranes required the use of high membrane concentrations, and the fluorescence was measured with the plate reader SpectraMax iD5 (Molecular Devices, Berkshire, UK), where the reading setup is not very sensitive to scatter. To guarantee that the high scatter intensity was not leading to artifacts in the measured fluorescence intensity of NBD–C4, titrations of NBD-C6 and NBD–C8 were also performed in the same plate. For these two latter amphiphiles, the results obtained for the partition coefficient were similar to those obtained for experiments with low scatter intensity. A small decrease in the fluorescence intensity from NBD–C8 was nevertheless observed at very high scatter intensities (OD ≥ 0.5), which was used to correct the signal from the less lipophilic amphiphiles, see Supplementary Information (Figure S5 and Equation (S4)). The molar volume considered for the lipid was 0.8 dm^3/mol, and 1.2 g/mL was considered for the density of the membrane proteins.
S3 – Partition of the NBD amphiphiles to lipid bilayers and native membranes The fluorescence increase that accompanies the association of the NBD amphiphiles with the model membra nes was well defined by a simple partition, equation S3. […]
where IfW and If M are respec ti vel y the fluorescence intensity when all fluorescent amphiphile is in the aqueous phase and ass oci ated with the membranes, LbK is the partition co eff icient P between the aqueous and the lipid bilayer, V is the molar vo l u m e of the lipid when in the lipid L bi l ayer, and [L] is the lipid concentration.
To characterize the association of the NBD amphiphiles with the native membranes the whole membrane vo lume was considere d, including the lipid bilayer and the membrane proteins. For the ca se of the less lipophilic amphiphiles NBD‐C4 and NBD‐C6, a sig nif ica nt scatter from the […]
both to the larger size of the vesicles (ca 1 µm diameter, [1]) and to the high refractive index of the native membranes. The magnitude of the scatter effect was quantified through the best fit […]
partition to the membranes at co n ce ntrations where scatter is not significant. The modified […]
where s is the scatter correction factor for a given concentration of native membranes, If W and IfM are respectively the fluorescence intensity when all fluorescent amphiphile is in the aqueous phase and associated with the membranes, WMK → is the partition coefficient between the P aqueous phase and the native membrane, V is the molar volume of the lipid when in the L membrane and [L] the molar concentration of the membrane lipids, V is the vo lume occupied P by 1 g of membrane protein (assuming a density of 1.2 g/mL) and [P] is the protein concentration in units of ma ss per volume.
Typical results obtained for the variation of the fluorescence intensity at 540 nm of the NBD‐Cn fluorophores equilibrated with increasing concentrations of native membranes, are shown in figure S3. The fluorescence intensity was measured in black 96 well plates with the plate reader […]
SpectraMax iD5. The NBD‐Cn concentrations we re 0.5 µM for NBD‐C8 , 1 µM for NBD‐C6, and 2 µM for NBD‐C4, and the total volume per well was 150 µL. […]

The nature of data set [5]: Association (partition) with model membranes (LUVs POPE:POPC:POPS 45:35:20). Type of data set: physicochemical. Conditions: aqueous phase to model lipid bilayer. On the procedure: The model membranes with a phospholipid composition representative of that of the native membranes (POPE:POPC:POPS 45:35 20) were prepared from stock solutions of the required lipids in chloroform or in chloroform/methanol (87/13, v/v), as described before. The solvent-free lipid residue was hydrated at 40 °C with previously heated simplified ATPase assay buffer (with all components except Ouabain and DTT). Large Unilamelar Vesicles were prepared by extrusion through two-staked polycarbonate filters (100 nm pore diameter), and the size of the LUVs was analyzed by dynamic light scattering (Zetasizer Nano ZS, Malvern, UK) being close to the filter pore size.
as §1, §2
S3 – Partition of the NBD amphiphiles to lipid bilayers and native membranes
The fluorescence increase that accompanies the association of the NBD amphiphiles with the
model membra nes was well defined by a simple partition, equation S3.
If 1540 nm Lb= + S3, KVL[]
where IfW and If M are respec ti vel y the fluorescence intensity when all fluorescent amphiphile is
in the aqueous phase and ass oci ated with the membranes, LbK is the partition co eff icient P
between the aqueous and the lipid bilayer, V is the molar vo l u m e of the lipid when in the lipid L
bi l ayer, and [L] is the lipid concentration. […]

The subject of a further data set is P–gp. Description: Partition coefficient to membrane protein from Equations (1) and (2), binding to P–gp only. The note with it: binding to the protein P–gp only. Type of data set: physicochemical, mouse. From the text:
(§3) From the partition coefficient obtained for the native membranes, KPW→M , and that for the model lipid bilayers, KPW→Lb , one can calculate the partition coefficient between the aqueous phase and the proteins in the membrane, KPW→P , and from the lipid bilayer to the proteins, KPLb→P , Equations (1) and (2), [40]. (1) KPW→M VM=KPW→PVP+KPW→Lb VLb (2) KPLb→P=KPW→P/KPW→Lb
(§4) In Equation (1) it is necessary to include the volume occupied by the proteins, and the values obtained will, therefore, depend on whether it is considered that the amphiphile may interact with all proteins in the membrane or with P–gp only.

Data set [6] is described as follows: Partition coefficient to membrane proteins from Equations (1) and (2), all membrane proteins with equal affinity. Type of data set: physicochemical, High-Five insect cells. Conditions: binding to all membrane proteins with equal affinity.
Description: as §3, §4

The conditions of data set [7]: cited from earlier work.

T1 sequence (P21447 whole entry): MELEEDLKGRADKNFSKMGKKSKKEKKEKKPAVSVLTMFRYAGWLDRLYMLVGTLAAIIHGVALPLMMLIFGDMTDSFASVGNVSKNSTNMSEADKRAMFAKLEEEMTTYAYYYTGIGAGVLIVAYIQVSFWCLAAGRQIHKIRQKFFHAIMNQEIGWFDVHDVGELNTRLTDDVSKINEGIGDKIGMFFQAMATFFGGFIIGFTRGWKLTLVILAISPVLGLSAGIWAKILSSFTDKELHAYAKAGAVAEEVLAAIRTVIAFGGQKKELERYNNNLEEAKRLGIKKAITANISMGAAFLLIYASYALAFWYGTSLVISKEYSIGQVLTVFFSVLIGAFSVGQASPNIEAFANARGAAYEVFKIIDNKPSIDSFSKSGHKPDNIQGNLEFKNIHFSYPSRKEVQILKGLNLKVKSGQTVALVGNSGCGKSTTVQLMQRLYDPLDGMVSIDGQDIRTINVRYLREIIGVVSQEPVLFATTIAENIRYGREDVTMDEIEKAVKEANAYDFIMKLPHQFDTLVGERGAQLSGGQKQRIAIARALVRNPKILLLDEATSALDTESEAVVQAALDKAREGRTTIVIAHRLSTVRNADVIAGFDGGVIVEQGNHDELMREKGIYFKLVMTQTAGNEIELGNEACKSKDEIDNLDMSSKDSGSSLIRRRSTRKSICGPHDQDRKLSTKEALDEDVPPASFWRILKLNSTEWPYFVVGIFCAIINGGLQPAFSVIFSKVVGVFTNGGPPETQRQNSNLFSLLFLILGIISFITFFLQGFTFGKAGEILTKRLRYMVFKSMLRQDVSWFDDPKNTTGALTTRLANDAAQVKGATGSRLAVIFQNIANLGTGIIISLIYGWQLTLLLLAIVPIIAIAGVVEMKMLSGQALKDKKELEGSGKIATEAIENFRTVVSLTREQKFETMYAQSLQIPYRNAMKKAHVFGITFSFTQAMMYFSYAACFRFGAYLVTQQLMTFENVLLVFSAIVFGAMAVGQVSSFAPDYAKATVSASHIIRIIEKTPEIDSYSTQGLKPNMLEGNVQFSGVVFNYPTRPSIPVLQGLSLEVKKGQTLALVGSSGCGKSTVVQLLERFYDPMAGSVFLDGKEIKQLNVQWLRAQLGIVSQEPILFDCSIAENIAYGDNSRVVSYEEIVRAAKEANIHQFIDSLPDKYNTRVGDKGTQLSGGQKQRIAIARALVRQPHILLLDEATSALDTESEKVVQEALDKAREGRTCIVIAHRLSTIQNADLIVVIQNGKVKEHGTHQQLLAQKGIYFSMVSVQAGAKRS

For the compound `COc1cc2c(cc1OC)CN(CCc1ccc(NC(=O)c3cc(OC)c(OC)cc3NC(=O)c3cnc4ccccc4c3)cc1)CC2` [Tariquidar, reference compound], the “Inhibition of IAAP binding” value on mP–gp [1] is reported as “efficient inhibition of IAAP binding”. In addition, the Ki at mP–gp [2] is 200 nM.
`CCCCCCCCCCNc1ccc([N+](=O)[O-])c2nonc12` [NBD-C10]: the “increase of CAC in the presence of co-solvent” value in data set [3] is reported as 6 fold.
On to `CCCCCCNc1ccc([N+](=O)[O-])c2nonc12` [NBD-C6], for which, in data set [4] (37 °C, simplified ATPase assay buffer), the “LogKP, association with the native membranes” value is on record as 3.20 ± 0.26. The KPW→M in data set [4] (membrane volume = phospholipid bilayer and P–gp (binding to the protein P–gp only)) is given as 3.9 × 10^3; in data set [4] (membrane volume = phospholipid bilayer and all proteins (binding to all membrane proteins with equal affinity)), 1.6 × 10^3. The KPW→Lb in data set [5] (section: binding to all membrane proteins with equal affinity) and in data set [5] (section: binding to the protein P–gp only) was 2.4 × 10^3 each time. Besides, the KPW→P was 1.0 × 10^5 in the data set on P–gp (aqueous phase to protein) and 1.0 × 10^3 in data set [6] (aqueous phase to proteins). The values for the KPLb→P (in the data set with P–gp (lipid bilayer to protein); in data set [6] (lipid bilayer to proteins)) were 43 and 0.43, respectively. Moreover, in data set [7], the “LogKP, association with POPC bilayers” value is on record as 3.79.

As usually defined, the Ki is the dissociation constant of the complex between target and ligand, obtained from inhibition or displacement.
